# Experimental data: patent publication US6815577B1, “Method of hybrid seed production using conditional female sterility” (Syngenta Participations AG, priority 1997, dated 2004)
# What was measured:
# [1] = tested on: transgenic plants expressing phosphonate monoester hydrolase gene in tapetal cells; settings: Dotson et al. 1996; cited from earlier work
# [2] = tested on: transgenic plants expressing bacterial cytochrome P450 gene in tapetal cells; settings: WO 91/03561; O'Keefe et al. 1994; cited from earlier work
# [3] = tested on: plants transformed with pMA200 or pSH68 or pZmgarg; assay: Acetyl-PPT treatment of plants conferring conditional male sterility; type: in vivo; settings: T1 plants with pMA200 or pSH68 or pZmgarg, treated during the growing stages; untreated plants fully fertile
# Method: (§1) Seed from the T1 generation from plants transformed with pFA200 or pSH74 or p19arg (conferring conditional female sterility) and plants transformed with pMA200 or pSH68 or pZmgarg (conferring conditional male sterility) are planted in soil. Once plantlets have grown to a sufficient size, leaf tissue is analyzed by PCR for the presence of the argE transgene. PCR positive plants are transferred to the greenhouse. These plants are fully fertile. A subset of the plants containing pFA200 or pSH74 or p19arg and a subset containing pMA200 or pSH68 or pZmarg are treated with the protoxin acetyl-PPT during the growing stages. […] The untreated plants transformed with pFA200 or pSH74 or p19arg and pMA200 or pSH68 or pZmgarg are fully fertile.
# [4] = tested on: conditional male sterile plants (transformed with pGK73); assay: Acetyl-PPT treatment of conditional male sterile tobacco plants; type: in vivo; settings: T1 tobacco, pGK73 (TA29-argE), treated during the growing stages; untreated plants remain fully fertile
# From the text: Tobacco leaf discs are also transformed with pGK73, containing an expression cassette of the argE gene under the control of the TA29 promoter (Kriete et al., Plant J. 9:809-818 (1996)) as described in Horsch et al., Science 227:1229-1231 (1985). The presence of the integrated transgenes are confirmed by PCR. Northern analysis of RNA made from anthers is used to confirm tissue-specific expression of the argE gene in the transgenic plants. These plants are self-fertile and have the phenotype of conditional male sterility. Seed of the T1 generation is collected after self-pollination.
# Seed of the T1 generation from both conditional female sterile plants (transformed with pFA100) and conditional male sterile plants (transformed with pGK73) are planted in soil. Once plantlets have grown to a sufficient size, leaf tissue is analyzed by PCR for the presence of the argE transgene. PCR positive plants are transferred to the greenhouse. These plants are fully fertile in the absence of exogenously-applied protoxin. A subset of the conditional female sterile plants and a subset of the conditional male sterile plants are treated with the protoxin acetyl-PPT during the growing stages. […] The untreated plants remain fully fertile. Pollen from the treated female sterile plants is collected and used to pollinate the pistils of treated male sterile plants, which are the female parent plants. […]
# [5] = tested on: plants transformed with pFA200 or pSH74 or p19arg; assay: Acetyl-PPT treatment of plants conferring conditional female sterility; type: in vivo; settings: T1 plants with pFA200 or pSH74 or p19arg, treated during the growing stages; untreated plants fully fertile
# Method: as §1
# [6] = tested on: conditional female sterile plants (transformed with pFA100); assay: Acetyl-PPT treatment of conditional female sterile tobacco plants; type: in vivo; settings: T1 tobacco, pFA100 (Stig1-argE), treated during the growing stages; untreated plants remain fully fertile
# From the text: Plasmid pFA100 is constructed in a manner similar to pSH58, above, except that the argE gene (SEQ ID NO:3) replaces the GUS gene in Stig1-GUS (Goldman et al., EMBO J. 13:2976-2984 (1994)) in the correct translational reading frame using appropriate restriction enzymes. The STIG1-argE fusion is then ligated into a vector such as pCIB200 containing T-DNA borders, 3′ termination sequences and a functional plant selectable marker such as kanamycin resistance. The Stig1 promoter is a female-preferential promoter.
# Tobacco leaf discs are transformed as described in Horsch et al., Science 227:1229-1231 (1985) with pSH58. The presence of the integrated transgenes is confirmed by PCR. Northern analysis of RNA made from female tissue is used to confirm tissue-specific expression of the argE gene in the transgenic plants. These plants are self-fertile and have the phenotype of conditional female sterility. T1 seed is collected after self-pollination. The female conditional transgene in pFA100 is also introduced into tobacco using similar procedures.
# Seed of the T1 generation from both conditional female sterile plants (transformed with pFA100) and conditional male sterile plants (transformed with pGK73) are planted in soil. Once plantlets have grown to a sufficient size, leaf tissue is analyzed by PCR for the presence of the argE transgene. PCR positive plants are transferred to the greenhouse. […]
# [7] = tested on: transgenic plants expressing N-acetyl-L-ornithine deacetylase gene in tapetal cells; settings: Kriete et al. 1996; EP 531,716; cited from earlier work
structure (smiles),measurement,setting,value
"O=C(O)CNCP(=O)(O)OCC(O)CO (stereo not shown) [glycerol glyphosate, glyceryl glyphosate]",male fertility after protoxin treatment,[1],rendered male sterile
"COc1cc(OC)nc(NC(=O)NS(=O)(=O)c2cccc3c2S(=O)(=O)N(C(C)C)C3)n1 [R7402, 2-methylethyl-2,2-dihydro-N-[(4,6-dimethoxypyrimidin-2-yl)aminocarbonyl]-1,2-benzoiaothiazole-7-sulfonamide-1,1-dioxide]",male fertility after protoxin treatment,[2],rendered male sterile
"CC(=O)NC(CCP(C)(=O)O)C(=O)O (stereo not shown) [acetyl-PPT, N-acetyl phosphinothricin]",fertility of treated plants (male reproductive structures),[3],are male sterile
same,fertility of treated conditional male sterile plants,[4],become male sterile
same,fertility of treated plants (female reproductive structures),[5],are female sterile
same,fertility of treated conditional female sterile plants,[6],become female sterile
CC(=O)N[C@@H](CCP(C)(=O)O)C(=O)O [N-acetyl-L-phosphinothricin],male fertility after protoxin treatment,[7],rendered male sterile
